According to patent publication US20060009506A1, “Drugs for the treatment of neoplastic disorders” (Odyssey Thera, Inc., priority 2004, published 2006):

Tests used:
cancer cells = assay: Antiproliferative activity against cancer cells (cell line not stated); type: cell-based, human; conditions: general statement
Excerpt: (§1) We first screened compounds derived from the known pharmacopeia and from a selected natural product collection using two types of assays: (a) measurements of post-translational modifications of proteins; (b) measurements of protein-protein interactions. For the purpose of measuring post-translational modifications of proteins, we used immunofluorescence methods combined with phospho-specific antibodies. For the purpose of quantifying and localizing protein complexes we used fluorescence methods based on protein-fragment complementation assays (PCA). ‘Hits’ from the initial screens were then tested for antiproliferative activity in up to 5 different human tumor cell lines. […] For drugs with antiproliferative activity in PC-3 cells, dose-response curves were generated to determine the EC50 for antiproliferative activity and additional tumor cell lines were tested to determine the breadth of activity. Methods for assay development, validation, screening, and testing of antiproliferative activity are described below.
Cells were maintained in various media as follows: A549, LoVo and PC-3 (Ham's F12K medium with 2 mM L-glutamine and 1.5 g/L sodium bicarbonate), MIA PaCa-2 (Dulbecco's modified Eagle's medium with 4 mM L-glutamine and 4.5 g/L glucose), U87-MG (MEM+Earle's BSS). Medium for each cell line was supplemented with 10% FBS and […] Penecillin/Streptomycin. All cells were grown in incubators set at 37° C., 5% CO2. Thiazolyl Blue Tetrazolium Bromide (MTT) based proliferation assays were performed to assess the anti-proliferative activities of the compounds on these cells. Cells were seeded in 96 well plates at a density of 750 cells/well 24 hours prior to compound treatment. The cells were incubated with varying concentrations of compounds for 120 hours. Compound concentrations range from 0.03 to 100 microM (half log increments) except for alpha-Tomatine (0.001-100 microM, half log increments), Neriifolin (0.0002-100 microM) and Peruvoside (0.01-100 microM). Drug treatment was performed in 5 replicate wells. Background absorbance was established by wells containing medium but no cells. Vehicle (DMSO) only was used as control. MTT (Sigma-Aldrich, St. Louis, Mo.) was added to each well at a final concentration of 0.5 mg/ml. Following a 2 hour incubation at 37° C., medium in the wells was replaced with 0.15 ml DMSO. The plates were agitated for 15 min using a microtiter plate shaker. […] Mean absorbance values were calculated from 5 replicate wells of each drug treatment following subtraction of background absorbance from blank samples and plotted as a percentage of control.

U-87 MG cells = assay: MTT proliferation assay, glioblastoma U-87 MG; type: cell-based; conditions: Homo sapiens, Tumor Cell: Glioblastoma (U-87 MG), 120 hours, concentrations tested in microM
Excerpt: as §1
(§2) Cells were maintained in various media as follows: A549, LoVo and PC-3 (Ham's F12K medium with 2 mM L-glutamine and 1.5 g/L sodium bicarbonate), MIA PaCa-2 (Dulbecco's modified Eagle's medium with 4 mM L-glutamine and 4.5 g/L glucose), U87-MG (MEM+Earle's BSS). Medium for each cell line was supplemented with 10% FBS and […] Penecillin/Streptomycin. All cells were grown in incubators set at 37° C., 5% CO2. Thiazolyl Blue Tetrazolium Bromide (MTT) based proliferation assays were performed to assess the anti-proliferative activities of the compounds on these cells. Cells were seeded in 96 well plates at a density of 750 cells/well 24 hours prior to compound treatment. The cells were incubated with varying concentrations of compounds for 120 hours. […] Drug treatment was performed in 5 replicate wells. Background absorbance was established by wells containing medium but no cells. Vehicle (DMSO) only was used as control. MTT (Sigma-Aldrich, St. Louis, Mo.) was added to each well at a final concentration of 0.5 mg/ml. Following a 2 hour incubation at 37° C., medium in the wells was replaced with 0.15 ml DMSO. The plates were agitated for 15 min using a microtiter plate shaker.

cancer pathways = assay: Screening of cancer pathways in human cells (PCA and phospho-immunofluorescence); type: cell-based; conditions: cancer pathway in which the drug was active; screened at 10 micromolar, HEK293 cells
Excerpt: as §1
Immunofluorescence was performed on drug-treated cells using antibodies that specifically recognize phosphorylated forms of key signaling proteins. HEK293T cells were seeded in black-walled, poly-lysine coated 96-well plates (Greiner) at a density of 30,000/well. After 24 hours, cells in duplicate wells were treated with drugs. 100 ng/ml hEGF added to the cells during the last 5 min of drug treatment. The cells were rinsed once with PBS and fixed with 4% formaldehyde for 10 min. The cells were subsequently permeabilized with 0.25% Triton X-100 in PBS and incubated with 3% BSA for 30 min to block non-specific antibody binding. Each of the 4 sets of identically treated cells were then incubated with rabbit antibodies against phosphorylated CREB (Ser133), hsp27 (Ser82), pERK (T202/Y204) (Cell Signaling), or BSA in PBS. The cells were rinsed with PBS and incubated with Alexa488 conjugated goat anti-rabbit secondary antibody (Molecular Probes). Cell nuclei were stained with Hoechst33342 (Molecular Probes). Images were acquired using Discovery-1 High Content Imaging System (Molecular Devices). Background fluorescence due to nonspecific binding by the secondary antibody was established with the use of cells that were incubated with BSA/PBS and without primary antibodies. Fluorescence intensities were quantitated using Image J-based image analysis algorithm as described below.
Reporter fragments for PCA were generated by oligonucleotide synthesis (Blue Heron Biotechnology, Bothell, Wash.). First, oligonucleotides coding for polypeptide fragments YFP[1]and YFP[2] […] Next, PCR mutagenesis was used to generate the mutant fragments IFP[1] and IFP[2]. The IFP[1] fragment corresponds to YFP[1]-(F46L, F64L, M153T) and the IFP[2] fragment corresponds to YFP[2]-(V163A, S175G). […] The YFP[1], YFP[2], IFP[1] and IFP[2] fragments were amplified by PCR to incorporate restriction sites and a linker sequence, described below, in configurations that would allow fusion of a gene of interest to either the 5′- or 3′-end of each reporter fragment. The reporter-linker fragment cassettes were subcloned into a mammalian expression vector (pcDNA3.1Z, Invitrogen) that had been modified to incorporate the replication origin (oriP) of the Epstein Barr virus (EBV). […] Additionally, these vectors still retain the SV40 origin, allowing for episomal expression in cell lines expressing the SV40 large T antigen (e.g. HEK293T, Jurkat or COS). […] PCA fusion constructs were prepared for a large number of proteins known to participate in cellular pathways (Table 1 and Table 2). The full coding sequence for each gene of interest was amplified by PCR from a sequence-verified full-length cDNA.

MIA PaCa-2 cells = assay: MTT proliferation assay, pancreatic carcinoma MIA PaCa-2; type: cell-based; conditions: Homo sapiens, Tumor Cell: Pancreatic (MIA PaCa-2), concentrations tested in microM
Excerpt: as §1, §2

A549 cells = assay: MTT proliferation assay, non-small cell lung carcinoma A549; type: cell-based, Human; conditions: Homo sapiens, Tumor Cell: NSCLC (A549), concentrations tested in microM
Excerpt: as §1, §2

LoVo cells = assay: MTT proliferation assay, colon adenocarcinoma LoVo; type: cell-based; conditions: Homo sapiens, Tumor Cell: Colon (LoVo), 120 hours, concentrations tested in microM
Excerpt: as §1, §2

PC-3 cells = assay: MTT proliferation assay, prostate adenocarcinoma PC-3; type: cell-based, Human; conditions: for IC50: Homo sapiens, Tumor Cell: Prostate (PC-3), MTT, 120 hours, concentrations tested in microM
Excerpt: as §1, §2

Structure (SMILES) | IC50 (U-87 MG cells) [µM] | IC50 (MIA PaCa-2 cells; MIA PaCa-2, 120 h) [µM] | IC50 (A549 cells; A549, 120 h) [µM] | IC50 (LoVo cells) [µM] | IC50 (PC-3 cells) [µM] | Antiproliferative activity against cancer cells (cancer cells) | Pathway Activity (cancer pathways) | IC50 (MIA PaCa-2 cells; 120 hours) [µM] | IC50 (A549 cells; 120 hours) [µM] | Antiproliferative activity in the PC-3 assay (PC-3 cells; FIG. 1, compared to DMSO control)
O=C(Nc1ccc([N+](=O)[O-])cc1Cl)c1cc(Cl)ccc1O [Niclosamide] | 0.81 | 0.59 | 0.66 | 0.45 | 1.33 | substantial antiproliferative activity | apoptosis | – | – | –
C[C@H]1CC[C@]2(NC1)O[C@H]1C[C@H]3[C@@H]4CC[C@H]5C[C@@H](O[C@@H]6O[C@H](CO)[C@H](O[C@@H]7O[C@H](CO)[C@@H](O)[C@H](O[C@@H]8OC[C@@H](O)[C@H](O)[C@H]8O)[C@H]7O[C@@H]7O[C@H](CO)[C@@H](O)[C@H](O)[C@H]7O)[C@H](O)[C@H]6O)CC[C@]5(C)[C@H]4CC[C@]3(C)[C@H]1[C@@H]2C [Tomatine] | – | – | – | – | – | substantial antiproliferative activity | invasion/metastasis | 0.1 | 0.06 | –
Cc1cccc(Nc2cc(Cl)nc(SCC(=O)O)n2)c1C [WY-14643] | – | – | – | – | – | – | – | – | – | inactive

The next lines start with results.

IC50 (U-87 MG cells) [µM] | IC50 (MIA PaCa-2 cells; MIA PaCa-2, 120 h) [µM] | IC50 (A549 cells; A549, 120 h) [µM] | IC50 (LoVo cells) [µM] | IC50 (PC-3 cells) [µM] | Structure (SMILES) | Antiproliferative activity against cancer cells (cancer cells) | Pathway Activity (cancer pathways) | IC50 (MIA PaCa-2 cells; 120 hours) [µM] | IC50 (A549 cells; 120 hours) [µM] | Antiproliferative activity in the PC-3 assay (PC-3 cells; FIG. 1, compared to DMSO control)
4.6 | – | – | – | – | CC(C)c1c(C(=O)Nc2ccccc2)c(-c2ccccc2)c(-c2ccc(F)cc2)n1CC[C@@H](O)C[C@@H](O)CC(=O)O [Atorvastatin] | substantial antiproliferative activity | invasion/metastasis | – | – | –
9.02 | 3.92 | 3.95 | 2.73 | 11.7 | COC(=O)[C@H]1[C@H]2C[C@H]3c4[nH]c5cc(OC)ccc5c4CCN3C[C@H]2C[C@@H](OC(=O)c2cc(OC)c(OC)c(OC)c2)[C@@H]1OC [Isoreserpine] | substantial antiproliferative activity | apoptosis | – | – | –
0.38 | 0.35 | 0.55 | 0.99 | 1.32 | CC(C)(C)c1ccc(C(O)CCCN2CCC(C(O)(c3ccccc3)c3ccccc3)CC2)cc1 (stereo not drawn) [Terfenadine] | substantial antiproliferative activity | invasion/metastasis | – | – | –
0.86 | 0.77 | 0.23 | 1.4 | 0.63 | CC1(C)CCC2=C(O1)c1ccccc1C(=O)C2=O [beta-Lapachone] | substantial antiproliferative activity | apoptosis | – | – | –
